Experimental data from ChEMBL document CHEMBL1201862, “PubChem BioAssay data set” (2004).
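Step 1: Grow cells in 96-well plates. Step 2: Expose to compound for 48 hours at 5 concentrations. Step 3: Interpolate endpoints linearly; if unreached, use highest concentration. GI50: concentration for 50% inhibition of growth.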 Active and inactive are the calls of the source. Rule as the data show it: active = GI50 up to about 1.1 µM and inactive = higher.

Key:
Assay in all cases: inhibition of tumour cell growth, NCI panel, 48 h
[1] = tested on: CAKI-1
[2] = tested on: SN12C
[3] = tested on: PC-3
[4] = tested on: SR
[5] = tested on: K562
[6] = tested on: KM12
[7] = tested on: HCT-15
[8] = tested on: SNB-19
[9] = tested on: A549
[10] = tested on: TK-10
[11] = tested on: DU-145
[12] = tested on: Hs-578T
[13] = tested on: UO-31
[14] = tested on: SF-539
[15] = tested on: CCRF-CEM
[16] = tested on: OVCAR-5
[17] = tested on: ACHN
[18] = tested on: LOX IMVI
[19] = tested on: SNB-75

Structure (SMILES)	GI50 [1]	GI50 [2]	GI50 [3]	GI50 [4]	GI50 [5]	GI50 [6]	GI50 [7]	GI50 [8]	GI50 [9]	GI50 [10]	GI50 [11]	GI50 [12]	GI50 [13]	GI50 [14]	GI50 [15]	GI50 [16]	GI50 [17]	GI50 [18]	GI50 [19]
COc1ccc(/C=C/c2ccnc3ccccc23)cc1	17.7 µM (inactive)	18.6 µM (inactive)	18.2 µM (inactive)	29.3 µM (inactive)	6.34 µM (inactive)	16.5 µM (inactive)	18.1 µM	19.3 µM (inactive)	15.4 µM (inactive)	16.2 µM (inactive)	14.8 µM (inactive)	22.6 µM (inactive)	0.021 µM (active)	21.8 µM (inactive)	10.5 µM (inactive)	21.4 µM (inactive)	13.9 µM (inactive)	16.5 µM (inactive)	
OC[C@@H](O)[C@H]1NC[C@@H](O)[C@H]1O	> 100 µM (inactive)	> 100 µM (inactive)	> 100 µM (inactive)	> 100 µM (inactive)		> 100 µM (inactive)	> 100 µM	> 100 µM (inactive)	> 100 µM (inactive)	> 100 µM (inactive)	> 100 µM (inactive)	> 100 µM (inactive)	> 100 µM (inactive)	> 100 µM (inactive)	> 100 µM (inactive)	> 100 µM (inactive)	> 100 µM (inactive)		> 100 µM (inactive)
COc1ccc2c(c1)nc1n2C(N)=Nc2ccccc2S1	> 100 µM (inactive)	44.6 µM (inactive)	16.5 µM (inactive)		4.91 µM (inactive)	15.4 µM (inactive)	35.4 µM	39.3 µM (inactive)	29.7 µM (inactive)	> 100 µM (inactive)	35.5 µM (inactive)	61 µM (inactive)	26.4 µM (inactive)	33.4 µM (inactive)	2.55 µM (inactive)	36.6 µM (inactive)	29.6 µM (inactive)	11.8 µM (inactive)	> 42.9 µM (inactive)
C/C1=C\CC[C@@]2(C)O[C@@H]2C[C@@H]2[C@H](C/C(C)=C/CC1)OC(=O)[C@]21CO1	> 100 µM (inactive)	74.5 µM (inactive)	> 100 µM (inactive)	36.7 µM (inactive)	34.4 µM (inactive)	28.8 µM (inactive)	> 100 µM	> 100 µM (inactive)	65.2 µM (inactive)	> 100 µM (inactive)	> 100 µM (inactive)	> 100 µM (inactive)	> 100 µM (inactive)		46.2 µM (inactive)	> 100 µM (inactive)	> 100 µM (inactive)	19.6 µM (inactive)	> 100 µM (inactive)
O=C1Nc2ccccc2/C1=N/Nc1nc(-c2cccc([N+](=O)[O-])c2)cs1	19.2 µM (inactive)	20.8 µM (inactive)	28.2 µM (inactive)	53 µM (inactive)		26.3 µM (inactive)	21.8 µM	26.7 µM (inactive)	20.1 µM (inactive)	19 µM (inactive)	25.6 µM (inactive)	20.1 µM (inactive)	55.3 µM (inactive)	24 µM (inactive)	32.8 µM (inactive)	> 100 µM (inactive)	31.4 µM (inactive)	20.7 µM (inactive)	20.3 µM (inactive)
COc1ccc(-c2cc(=O)c3c(O)cc(O)cc3o2)cc1OC		59.6 µM (inactive)	55.1 µM (inactive)	9.2 µM (inactive)	92.7 µM (inactive)	33 µM (inactive)	> 100 µM	26.6 µM (inactive)	> 100 µM (inactive)	> 100 µM (inactive)	57 µM (inactive)	11.5 µM (inactive)	36.7 µM (inactive)	18.4 µM (inactive)	41.8 µM (inactive)	> 100 µM (inactive)	35.5 µM (inactive)	61.8 µM (inactive)	4.69 µM (inactive)
Cc1cn(C(CO)OC(CO)CN(O)C2C3CC4CC(C3)CC2C4)c(=O)[nH]c1=O (stereo not drawn)	> 100 µM (inactive)	> 100 µM (inactive)	> 100 µM (inactive)	> 100 µM (inactive)	> 100 µM (inactive)	> 100 µM (inactive)	> 100 µM	> 100 µM (inactive)	> 100 µM (inactive)	> 100 µM (inactive)	> 100 µM (inactive)	> 100 µM (inactive)	> 100 µM (inactive)	> 100 µM (inactive)		> 100 µM (inactive)	> 100 µM (inactive)		> 100 µM (inactive)
CCCN(CCC)CCc1ccc(OC2=CCN(C)CC2)cc1	> 100 µM (inactive)	> 100 µM (inactive)	> 100 µM (inactive)	28.2 µM (inactive)	42.6 µM (inactive)	30.4 µM (inactive)	36.9 µM	> 100 µM (inactive)	> 100 µM (inactive)	87.3 µM (inactive)	> 100 µM (inactive)	40.6 µM (inactive)	23.6 µM (inactive)		93.5 µM (inactive)	> 100 µM (inactive)	95.5 µM (inactive)	23 µM (inactive)	
Cc1ccc(NC(=O)/C(CC2Nc3c(ccc4c3C(=O)c3ccccc3C4=O)NC2O)=N/NC(C)(C)C)cc1 (stereo not drawn)	8.3 µM (inactive)	12.6 µM (inactive)	15.8 µM (inactive)			8.85 µM (inactive)	5.79 µM	28 µM (inactive)	16.1 µM (inactive)	7.66 µM (inactive)	7.36 µM (inactive)	9.4 µM (inactive)	3.7 µM (inactive)	7.59 µM (inactive)	1.36 µM (inactive)	26.5 µM (inactive)	12.4 µM (inactive)	7.23 µM (inactive)	25.8 µM (inactive)
Cc1ccc(C(=O)CCC2C(=O)CC(C)(C)CC2=O)cc1	17.5 µM (inactive)	> 100 µM (inactive)	> 100 µM (inactive)	15.7 µM (inactive)		> 100 µM (inactive)	> 100 µM	> 100 µM (inactive)	> 100 µM (inactive)	> 100 µM (inactive)	> 100 µM (inactive)	> 100 µM (inactive)	> 100 µM (inactive)	> 100 µM (inactive)	24.5 µM (inactive)	> 100 µM (inactive)	> 100 µM (inactive)	> 100 µM (inactive)	> 100 µM (inactive)
O=C(CSc1nc2ccccc2c(=O)n1-c1ccccc1)N/N=C1\C(=O)Nc2ccc(F)cc21	1.73 µM (inactive)	1.97 µM (inactive)	1.85 µM (inactive)	1.53 µM (inactive)	1.61 µM (inactive)	3.71 µM (inactive)	2 µM	4.08 µM (inactive)	4 µM (inactive)	1.9 µM (inactive)	1.89 µM (inactive)	4.18 µM (inactive)	2 µM (inactive)	3.14 µM (inactive)	2.35 µM (inactive)	2.04 µM (inactive)	1.91 µM (inactive)	4.31 µM (inactive)	
C=CCOC(=O)N1c2ccc(O)cc2[C@@]23O[C@@]24[C@@H]1C#C/C=C\C#C[C@]3(O)C(=O)C[C@@H]4C	> 100 µM (inactive)	54.2 µM (inactive)	34.8 µM (inactive)	15 µM (inactive)	59.7 µM (inactive)	> 100 µM (inactive)	> 100 µM	> 100 µM (inactive)	32 µM (inactive)	> 100 µM (inactive)	> 100 µM (inactive)	47.5 µM (inactive)	54.3 µM (inactive)	83.8 µM (inactive)	28.4 µM (inactive)	28.2 µM (inactive)	28.2 µM (inactive)		27.2 µM (inactive)
COc1ccc(/C=C/C(=O)C(C)(C)Br)cc1	17.4 µM (inactive)	4.95 µM (inactive)	11.7 µM (inactive)	3.3 µM (inactive)	4.61 µM (inactive)	16.1 µM (inactive)	2.62 µM	25.8 µM (inactive)	20.3 µM (inactive)	14.6 µM (inactive)	14.3 µM (inactive)	16.3 µM (inactive)	4.27 µM (inactive)	17.1 µM (inactive)	1.59 µM (inactive)	12 µM (inactive)	8.55 µM (inactive)	7.33 µM (inactive)	
COc1cc2c(cc1OCCCN1CCN(C)CC1)N=C[C@@H]1CCCN1C2=O	1.25 µM (inactive)	3.57 µM (inactive)	2.67 µM (inactive)	0.0887 µM (active)	0.679 µM (active)	1.57 µM (inactive)	2.25 µM	4.06 µM (inactive)	2.37 µM (inactive)	3.34 µM (inactive)	2.25 µM (inactive)	5.12 µM (inactive)	2.14 µM (inactive)	2.19 µM (inactive)	0.485 µM (active)	2.27 µM (inactive)	2.17 µM (inactive)	1.49 µM (inactive)	
Oc1ccc(O)c(Cc2ccccc2)c1		18.4 µM (inactive)	27.9 µM (inactive)	2.32 µM (inactive)	10.6 µM (inactive)	19.1 µM (inactive)	13.6 µM	53.1 µM (inactive)	37.2 µM (inactive)	21.7 µM (inactive)	6.27 µM (inactive)	31.9 µM (inactive)	15.1 µM (inactive)	10.7 µM (inactive)	7.41 µM (inactive)	57.5 µM (inactive)	14.8 µM (inactive)	18.6 µM (inactive)	
O=c1[nH]nc(N/N=C\c2ccc(Cl)cc2)c2ccccc12	18.3 µM (inactive)	27.5 µM (inactive)	17.2 µM (inactive)	3.9 µM (inactive)	20.9 µM (inactive)	21 µM (inactive)	17.9 µM	20.4 µM (inactive)	20.1 µM (inactive)	32.5 µM (inactive)	21.9 µM (inactive)	37 µM (inactive)	18.6 µM (inactive)	21.4 µM (inactive)	44 µM (inactive)	16.9 µM (inactive)	21.4 µM (inactive)		22.6 µM (inactive)
